What was measured:
SW1990 cells = assay: qPCR, immunoblotting and flow cytometry of PD-L1 and MHC-I pathway expression in SW1990 cells; type: cell-based, human
Protocol: (§1) (See Bardeesy, N., et al. supra). The human PDAC cell lines SU86.86 ([…]), SW1990 ([…]), BXPC-3 ([…]), Miapaca-2 ([…]), Capan-1 ([…]), ASPC-1 ([…]), Hs766T ([…]), Colo357/FG ([…]), L3.6PL ([…]), Panc28 ([…]), Capan-2 ([…]), CF-Pac-1 ([…]), Panc3 (sex unknown), Panc1 ([…]), Panc48 (sex unknown), and HPAC ([…]) were from Mien-Chie Hung's lab stock. […] The BXPC-3, Miapaca-2, Capan-1, ASPC-1, Colo357/FG, L3.6PL, Panc28, Capan-2, CF-Pac-1, Panc3, Panc1, Panc48, and HPAC cell lines were cultured in DMEM/F-12 (Corning, 10-092-CV) supplemented with 10% FBS and 1% penicillin/streptomycin. Cells were grown in a humidified incubator with 5% CO2 at 37° C., and low-passage stocks were maintained in a centralized lab cell bank. Short tandem repeat profiling and mycoplasma tests were done by the Cytogenetics and Cell Authentication Core at MD Anderson Cancer Center.
Membranes were blocked with 10% non-fat milk in TBST and incubated with the primary antibody at 4° C. overnight, followed by incubation with the secondary antibody conjugated with horseradish peroxidase (HRP).

GR = GR (Homo sapiens, UniProt P04150); conditions: ChIP-qPCR; co-treatment with mifepristone 100 nM and dexamethasone 100 nM, 30 min; SU86.86
Sequence of GR (P04150 whole entry, the tested form may be a part): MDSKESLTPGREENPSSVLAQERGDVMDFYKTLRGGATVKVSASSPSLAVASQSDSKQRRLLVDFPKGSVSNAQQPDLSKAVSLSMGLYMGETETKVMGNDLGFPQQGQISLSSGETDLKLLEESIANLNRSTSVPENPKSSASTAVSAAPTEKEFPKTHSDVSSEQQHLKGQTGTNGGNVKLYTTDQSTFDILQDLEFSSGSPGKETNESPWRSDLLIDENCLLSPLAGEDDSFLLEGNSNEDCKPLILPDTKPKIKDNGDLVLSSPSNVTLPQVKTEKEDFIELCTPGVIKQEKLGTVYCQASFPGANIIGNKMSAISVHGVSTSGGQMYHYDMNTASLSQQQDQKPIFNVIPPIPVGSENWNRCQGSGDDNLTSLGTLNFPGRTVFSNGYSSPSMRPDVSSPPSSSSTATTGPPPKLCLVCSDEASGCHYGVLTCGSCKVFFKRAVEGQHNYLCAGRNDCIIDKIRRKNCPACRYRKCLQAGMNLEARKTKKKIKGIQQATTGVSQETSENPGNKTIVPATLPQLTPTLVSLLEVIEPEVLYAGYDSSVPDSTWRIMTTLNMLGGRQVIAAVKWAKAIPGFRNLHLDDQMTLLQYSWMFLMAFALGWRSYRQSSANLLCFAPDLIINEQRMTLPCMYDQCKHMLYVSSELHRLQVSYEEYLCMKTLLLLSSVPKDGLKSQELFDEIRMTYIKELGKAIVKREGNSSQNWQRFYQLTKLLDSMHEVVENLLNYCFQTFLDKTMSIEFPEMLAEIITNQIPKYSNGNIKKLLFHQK
Protocol: SU86.86 cells were grown to 40% confluence in 15-cm dishes in RPMI with 10% FBS, followed by 72-hour incubation in phenol red-free RPMI supplemented with 5% charcoal-stripped FBS. […] Cells were cross-linked with 1% formaldehyde, quenched with glycine, and harvested. After cell lysis with ChIP lysis buffer, cells were digested with Micrococcal Nuclease and sonicated to achieve the majority of DNA fragments between 200 bp and 500 bp. […] Chromatin was eluted from GR ChIP following the manufacturer's protocol.

BXPC-3 cells = assay: qPCR and immunoblotting of PD-L1 and MHC-I in BXPC-3 cells; type: cell-based, human; conditions: MIFE 20 μM (qPCR) or indicated doses (immunoblot), 72 h
Excerpt: The male PDAC cell lines HY24409 and HY24160 and the female PDAC cell line HY19636 were established from KPC mice (p48-Cre; Kras^LSL-G12D/+; Trp53^loxP/+) that were backcrossed to a C57BL/6 background (purity: ˜ 98%). (See Bardeesy, N., et al. supra). The human PDAC cell lines SU86.86 ([…]), SW1990 ([…]), BXPC-3 ([…]), Miapaca-2 ([…]), Capan-1 ([…]), ASPC-1 ([…]), Hs766T ([…]), Colo357/FG ([…]), L3.6PL ([…]), Panc28 ([…]), Capan-2 ([…]), CF-Pac-1 ([…]), Panc3 (sex unknown), Panc1 ([…]), Panc48 (sex unknown), and HPAC ([…]) were from Mien-Chie Hung's lab stock. The HY24409, HY24160, HY19636, SU86.86, SW1990, and Hs766T cell lines were cultured in RPMI 1640 (Corning, 10-041-CV) supplemented with 10% fetal bovine serum (FBS) (Gibco, 10438-034) and 1% penicillin/streptomycin (Sigma, P4333). The BXPC-3, Miapaca-2, Capan-1, ASPC-1, Colo357/FG, L3.6PL, Panc28, Capan-2, CF-Pac-1, Panc3, Panc1, Panc48, and HPAC cell lines were cultured in DMEM/F-12 (Corning, 10-092-CV) supplemented with 10% FBS and 1% penicillin/streptomycin. Cells were grown in a humidified incubator with 5% CO2 at 37° C., and low-passage stocks were maintained in a centralized lab cell bank. Short tandem repeat profiling and mycoplasma tests were done by the Cytogenetics and Cell Authentication Core at MD Anderson Cancer Center. […]

[1] = tested on: orthotopic HY24160 tumors
Protocol: Orthotopic pancreatic tumor size was determined by MRI. Subcutaneous tumor size was measured with a caliper. […] Animal body weight was measured throughout the study.

HY24409 cells = assay: qPCR and flow cytometry of PD-L1, MHC-I and B2M in HY24409 cells; type: cell-based, mouse; conditions: MIFE 20 μM, 48 h
Protocol: as §1

[2] = flow cytometry and qPCR, HY24160 tumors

Compound: CC#C[C@]1(O)CC[C@H]2[C@@H]3CCC4=CC(=O)CCC4=C3[C@@H](c3ccc(N(C)C)cc3)C[C@@]21C [mifepristone]
- PD-L1 protein (SW1990 cells; Western blot and flow cytometric analysis, MIFE 72 h): downregulated
- MHC-I and B2M proteins (SW1990 cells; Western blot and flow cytometry, MIFE 72 h): upregulation
- mRNA levels of components in the MHC-I pathway, including HLA-A, HLA-B, HLA-C, B2M, SEC61B, and SEC61G (SW1990 cells; qPCR, MIFE 20 μM, 72 h): increased
- mRNA levels of immune checkpoint ligands, including PD-L1, CD47, TDO, and SIGLEC15 (SW1990 cells; qPCR, MIFE 20 μM, 72 h): decreased
- dexamethasone-induced binding of promoter sites to GR (GR): reversed
- MHC-I at both mRNA and protein levels (BXPC-3 cells): significantly upregulated
- PD-L1 at both mRNA and protein levels (BXPC-3 cells): downregulated
- tumor growth ([1]; C57BL/6 mice, orthotopic HY24160, CTL-dependent manner): inhibited tumor growth
- MHC-I expression levels [1, 2]: upregulated
- expression levels of PD-L1 and known GR-activated genes [1, 2]: downregulated
- body weight ([1]; mouse, in vivo): without affecting body weight
- infiltration and activity of cytotoxic T cells ([1]; mouse, in vivo): promoted
- surface PD-L1 levels (HY24409 cells; flow cytometry): decreased
- surface protein levels of MHC-I (H-2K^b) and B2M (HY24409 cells; flow cytometry): increased
- MHC-I and B2M mRNA levels (HY24409 cells; qPCR): increase
- PD-L1 mRNA levels (HY24409 cells; qPCR): decrease

From US20250032506A1, “GLUCOCORTICOID RECEPTOR BLOCKADE WITH MIFEPRISTONE TO SENSITIZE PANCREATIC CANCER TO IMMUNOTHERAPY” (BOARD OF REGENTS, THE UNIVERSITY OF TEXAS SYSTEM, priority 2021, published 2025)
